In ChEMBL document CHEMBL1154198, “Chemical genetics of Plasmodium falciparum” (Nature, 2010):

Legend:
Plasmodium falciparum [1] = test: ST_JUDE: Plasmodium falciparum K1 EC50 (uM) as measured by SYBR green dye; type: functional, organism-based
Plasmodium falciparum [2] = test: ST_JUDE: Plasmodium falciparum 3D7 EC50 (uM) as measured by SYBR green dye; type: functional, organism-based

SMILES	EC50 (Plasmodium falciparum [1]) [µM]	EC50 (Plasmodium falciparum [2]) [µM]
CC[n+]1c(/C=C/c2ccc(N(C)C)cc2)sc2cc(NC(C)=O)ccc21	4.32	3.31
CCCCN(CCCC)C(=O)Cn1ccc(=N)c2ccccc21	> 15	> 15
COc1cccc(C(=O)NCc2nnc(S)n2-c2ccc(Cl)c(Cl)c2)c1	0.0463	0.0928
COc1cc(Cl)c(C)cc1NC(=O)C1c2ccccc2C(=O)N(CC(C)C)C1c1cccs1 (configuration not stated)	0.226	0.166
C=CC[n+]1c(C=C2C=CC=CN2C)sc2ccccc21	0.879	1.52
Cc1onc(-c2ccccc2Cl)c1C(=O)Nc1cc(Cl)ccc1Cl	> 15	> 15
NNC(=O)CNC(c1ccccc1)c1cc(Br)ccc1NC(=O)c1ccccc1Br (configuration not stated)	1.65	1.89
CC[N+](CC)(CC)CCCOC1CC(C)CCC1C(C)C (configuration not stated)	4.65	> 15
O=S(=O)(NCC(c1cccnc1)N1CCN(c2ccc(F)cc2)CC1)c1ccc(Cl)cc1 (configuration not stated)	> 15	> 15
Cc1cccc(NC(c2ccc(Br)cc2)c2ccc3cccnc3c2O)n1 (configuration not stated)	3.54	1.94
CSCCC(=O)N(C)C(Cc1ccc(F)cc1)C1CCN(C(=O)c2cc3ccccc3n2C)CC1 (configuration not stated)	> 15	> 15
O=C(c1ccco1)N(Cc1cccnc1)c1nc2ccc(F)cc2s1	> 15	> 15
CCN1/C(=C/c2sc3ccccc3[n+]2CCO)C=Cc2cc(OC)ccc21	0.571	1.07
CN(C)CCCNC(=O)c1cc(-c2ccc(Cl)s2)nc2ccccc12	> 15	> 15
COCCn1/c(=N/C(=O)c2nc3ccccc3s2)sc2cc(S(C)(=O)=O)ccc21	> 15	> 15
CN1C(=O)/C(=C\c2cccc(Cl)c2)Sc2ccc(C(=O)NC3CCN(Cc4ccccc4)CC3)cc21	> 15	0.657
CCOC(=O)c1c(N)n(-c2ccc(F)cc2)c2nc3ccccc3nc12	> 15	2.48
Cc1cn2c(nc3c2c(=O)n(Cc2ccc(Br)cc2)c(=O)n3C)o1	> 15	> 15
CN1CCN(c2nc(Nc3cccc(Cl)c3)c3cnn(-c4ccccc4)c3n2)CC1	4.58	3.88
O=[N+]([O-])c1ccc(NC(c2ccccn2)c2ccc3cccnc3c2O)cc1 (configuration not stated)	2.28	4.78
Cc1ccc(NC(=O)Nc2cccc(Cl)c2)cc1F	> 15	> 15
C[n+]1ccccc1-c1nc2ccccc2s1	5.81	> 15
Oc1cccc(/C=C/c2ccc3cccc(O)c3n2)c1	5.88	> 15
CC(=O)NC(c1ccccc1)c1cc(Cl)c2cccnc2c1O (configuration not stated)	> 15	> 15

SMILES	EC50 (Plasmodium falciparum [1]) [µM]	EC50 (Plasmodium falciparum [2]) [µM]
O=C1CC(O)(C(F)(F)C(F)(F)OC(F)(F)F)Oc2ccc(Cl)cc21 (configuration not stated)	> 15	> 15
CCc1ccc(OCC2c3cc(OC)c(OC)cc3CCN2C(=O)COc2ccccc2)cc1 (configuration not stated)	> 15	> 15
CCN(CC)c1ccc(/C=N\Nc2ncc(F)c(N3CCOCC3)n2)c(O)c1	1.7	1.53
Cc1ccc(Cn2c(=O)c3ccccc3n3c(CCC(=O)N4CCC(C(N)=O)CC4)nnc23)cc1	> 15	> 15
Cc1ccc([N+](=O)[O-])cc1NC(=O)c1cc2ccccc2cc1O	0.827	0.825
COc1ccc(C2(O)C[N+](c3ccc(C)cc3)=C3SCCCN32)c(F)c1 (configuration not stated)	> 15	> 15
CCCOc1ccc(-c2nonc2NC(=O)c2cccc(OCC)c2)cc1OCCC	0.444	> 15
Cc1cccc(-n2c(N)c(C#N)c3nc4ccccc4nc32)c1	> 15	4.2
O=C(C1CCCCC1)N(Cc1cccnc1)c1nc2ccc(F)cc2s1	3.41	> 15
N#Cc1ccc(C(=O)N(Cc2cccnc2)c2nc3c(F)cccc3s2)cc1	> 15	> 15
Cc1cccc2nc(Cn3c(=O)n(Cc4ccc5c(c4)OCO5)c(=O)c4ccc(C(=O)NC5CCCCC5)cc43)cc(=O)n12	> 15	> 15
CC[n+]1cccc2cc(OC)ccc21	> 15	> 15
CCc1cc2c(=O)c(-c3ccc(OC(C)C)cc3)coc2cc1OC(C)=O	4.25	> 15
CCOCC(=O)Nc1ccc(S(=O)(=O)N2CCC(c3nc4ccccc4[nH]3)CC2)cc1	> 15	> 15
Cc1cc(C)c[n+](C(C)C(=O)c2ccc(-c3ccccc3)cc2)c1 (configuration not stated)	2.53	2.86
COc1cc(NC(=O)N2CCn3cccc3C2c2ccc(F)cc2)cc(OC)c1OC (configuration not stated)	3.75	4.15
COc1cc(CNCCc2ccc(Cl)cc2)cc(OC)c1O	> 15	6.89
Cc1ccc(-c2nc(-c3ccc(Cl)cc3)no2)cc1	> 15	> 15
CC(Sc1ccc(Cl)cc1)C(=O)Nc1ccc(Br)cc1F (configuration not stated)	> 15	> 15
CCOC(=O)c1cnc2c(C)cccc2c1NCCCN1CCOCC1	1.43	0.647
CCOc1cccc2sc(N(Cc3cccnc3)C(=O)c3ccccc3[N+](=O)[O-])nc12	> 15	5.31
CCN(CC)CCNC(=O)c1ccc2c(c1)sc1nc(-c3ccc(C)cc3)cn12	4.83	1.65
Cc1ccccc1CN1C(=O)CSc2ccc(C(=O)NCCC(C)C)cc21	> 15	> 15
O=[N+]([O-])c1ccc(NC(=S)Nc2cc(C(F)(F)F)cc(C(F)(F)F)c2)cc1	0.631	1.64

SMILES	EC50 (Plasmodium falciparum [1]) [µM]	EC50 (Plasmodium falciparum [2]) [µM]
Cc1cccc2sc(N(Cc3cccnc3)C(=O)c3ccc(C#N)cc3)nc12	3.08	> 15
COC(=O)c1c(N)n(-c2ccc(F)cc2F)c2nc3ccccc3nc12	3.98	0.853
CC(C)(O)C#Cc1ccc([C@@H]2C[C@H]3CN(Cc4cccc(Cl)c4)C(=O)[C@]34CCCN24)cc1	5.79	4.64
COc1ccccc1Cn1ccnc1SCC(=O)Nc1cc(C)ccc1C	> 15	1.97
COc1cc(C(NC(=O)CCl)NC(=O)CCl)ccc1OCC(C)C	3.67	5.66
CCCCCCC(O)(c1ccc(F)cc1)C(CN1CCOCC1)c1ccccc1 (configuration not stated)	2.19	3.18
C=CCN1C(=O)c2[nH]nc(-c3c(C)cc(C)cc3O)c2C1c1cccc(OC)c1 (configuration not stated)	1.42	2.42
O=C(COc1ccc(Cl)cc1)N1CCN(Cc2cccc([N+](=O)[O-])c2)CC1	> 15	> 15
CCOc1cc(C2C3=C(O)CC(c4ccc(OC)cc4)CC3=NC(C)=C2C(=O)OC)ccc1O (configuration not stated)	5.36	> 15
O=C(CSc1ccccc1[N+](=O)[O-])Nc1cccc(Br)c1	> 15	> 15
COc1ccc(-c2nn(C)c3sc(C(=O)Nc4cccc(C(F)(F)F)c4)cc23)cc1OC	> 15	> 15
Cc1ccc(-c2n(C)c3ccccc3[n+]2C)cc1	> 15	11.9
OCCNc1nc(Nc2ccc(Cl)c(Cl)c2)nc2ccccc12	4.32	> 15
CCc1n(CC(O)COc2ccccc2OC)c2ccccc2[n+]1CC (configuration not stated)	> 15	> 15
CCCCCOc1ccc(NC2=C(N3CCCCC3)C(=O)c3ccccc3C2=O)cc1	0.057	0.0689
CCCCN(CCCC)CC1OCc2ccccc2CO1	> 15	> 15
CC(=O)c1ccc(Oc2c(F)c(F)nc(F)c2F)cc1	> 15	> 15
COc1ccc(N2C(=O)/C(=C/Nc3ccc(F)cc3)c3ccccc3C2=O)cc1	> 15	> 15
CCC(=O)NC(c1ccccc1Cl)c1ccc2cccnc2c1O (configuration not stated)	2.91	2.19
CCCCCn1c(=O)c2c(nc3n(-c4ccccc4OCC)c(C)cn23)n(C)c1=O	> 15	> 15
C=CCN1C(=O)c2[nH]nc(-c3c(C)cc(C)cc3O)c2C1c1ccc(OCC)cc1 (configuration not stated)	1.72	2.74
CC1(C)CC(=O)C2=C(C1)OC(N)=C(C#N)C2c1ccc(F)cc1F (configuration not stated)	> 15	> 15
CCCCCCn1c(N)c(C(=O)OC)c2nc3ccccc3nc21	> 15	> 15
